Where a name gives a salt, the structure may show the parent alone. Read-outs that look alike come from different tables or passages of the source.
Key:
[1] = oral administration; cited from earlier work
[2] = free ketamine IV infusion 10 mg/kg/min over 5 min (50.0 mg/kg), Wistar rats; cited from earlier work
[3] = free ketamine, intraperitoneal injection in rat; cited from earlier work
[4] = cited from earlier work
[5] = PK study of liposomal ketamine formulation and free ketamine after single subcutaneous injection
Method: Blood samples were collected at 15 min, 0.5, 1, 2, 4, 6, 8, 24 and 48 hours post-injection.

[6] = three infusions per week; eight of nine subjects; cited from earlier work
[7] = cited from earlier work; remark: listed apart in the source
[8] = intravenous; of the eight patients enrolled; cited from earlier work
[9] = 3 intravenous infusions, 3-5 days interval; cited from earlier work
[10] = female, Sprague-Dawley, rat, plasma, sc, 5 mg/kg
[11] = free ketamine SC 5.0 mg/kg, rat plasma

| SMILES | patients showing improvement of mood symptoms [1] | t1/2 [2] | half-life [3] | oral bioavailability [4] | AUC(0-inf) [5, 10] | AUC(0-t) [5, 10] | Cmax [5, 10] | half-life [5, 10] | AUC0-inf/dose [5, 11] | AUC0-t/dose [5, 11] | Cmax/dose [5, 11] | time post injection at which ketamine was undetectable in plasma ([5]; free ketamine SC, FIG. 1) | time to relapse after the final intravenous infusion [6] | patients in whom the therapeutic response was maintained ([7]; for a week after a single intravenous infusion) | patients with >50% decrease in Hamilton Depression Rating Scale (HDRS) score ([7]; one day after a single intravenous infusion, 17 patients) | patients remitted to the nondepressed range (MADRS score 10) [8] | patients with a 50% or greater reduction in MADRS scores [8] | persistence of clinical improvement following the final infusion [9] |
| --- | --- | --- | --- | --- | --- | --- | --- | --- | --- | --- | --- | --- | --- | --- | --- | --- | --- | --- |
| CNC1(c2ccccc2Cl)CCCCC1=O (stereo not drawn) [Free Ketamine, ketamine hydrochloride] | approximately 30% | 37.8 min | 78 min | 17% | 314 ng·h/mL | 305 ng·h/mL | 190 ng/mL | 46.2 min | 62.9 | 61.0 | 38.0 | 4 h | ≤ 19 days | 35% | 71% | – | – | – |
| CN1[C@@H]2C[C@@H](OC(=O)[C@H](CO)c3ccccc3)C[C@H]1[C@@H]1O[C@@H]12 [Free Scopolamine, scopolamine hydrobromide trihydrate] | – | – | – | – | – | – | – | – | – | – | – | – | – | – | – | 3 | five | more than 2 weeks |
